The record followed here is patent US10406207B2, “Peptide conjugates of GLP-1 receptor agonists and gastrin and their use” (priority 2010, dated 2019).

Read-outs that look alike come from different tables or passages of the source. Square brackets hold non-standard residues; d marks the D form. Peptide text beside a SMILES is read from it. AEEA = NCCOCCOCC(=O)O

The target of one test is T1, human GLP-1 R (Homo sapiens, UniProt P43220).
T1 construct: expressed in transfected cells
The test can be described thus: Human GLP-1 receptor efficacy assay (cAMP induction, FlashPlate). Format: cell-based. The settings on record: read-out: hGLP-1 R EC50. The procedure:
On the day of analysis, growth medium was removed and the cells were washed once with 200 μl Tyrode buffer [Tyrode's Salts (9.6 g/l), 10 mM HEPES, pH 7.4]. […] The reaction was stopped by addition of 25 μl 0.5 M HCl and incubated on ice for 60 min.

The next test has as its target T2, human CCK-B R (Homo sapiens, UniProt P32239).
T2 construct: expressed in transfected cells
T2 sequence (P32239 1-447): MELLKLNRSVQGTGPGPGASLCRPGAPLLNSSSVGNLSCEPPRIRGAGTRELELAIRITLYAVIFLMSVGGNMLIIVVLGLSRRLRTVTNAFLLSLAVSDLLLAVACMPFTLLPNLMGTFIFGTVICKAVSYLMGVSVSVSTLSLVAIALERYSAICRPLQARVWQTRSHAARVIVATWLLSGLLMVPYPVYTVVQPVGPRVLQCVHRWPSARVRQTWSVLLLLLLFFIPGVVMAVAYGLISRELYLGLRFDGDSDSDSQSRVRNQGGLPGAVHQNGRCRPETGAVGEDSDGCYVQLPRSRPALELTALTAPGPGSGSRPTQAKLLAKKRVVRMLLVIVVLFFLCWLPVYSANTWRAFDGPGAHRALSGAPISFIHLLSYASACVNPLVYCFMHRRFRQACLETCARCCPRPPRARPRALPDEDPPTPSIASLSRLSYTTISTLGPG
The test can be described thus: Human CCK-B receptor efficacy assay (AlphaScreen SureFire p-ERK). Format: cell-based. As to conditions: read-out: hCCK-B R EC50. In general terms: Bead proximity is the source of the signal in Alpha formats.

T1 sequence (P43220 24-463): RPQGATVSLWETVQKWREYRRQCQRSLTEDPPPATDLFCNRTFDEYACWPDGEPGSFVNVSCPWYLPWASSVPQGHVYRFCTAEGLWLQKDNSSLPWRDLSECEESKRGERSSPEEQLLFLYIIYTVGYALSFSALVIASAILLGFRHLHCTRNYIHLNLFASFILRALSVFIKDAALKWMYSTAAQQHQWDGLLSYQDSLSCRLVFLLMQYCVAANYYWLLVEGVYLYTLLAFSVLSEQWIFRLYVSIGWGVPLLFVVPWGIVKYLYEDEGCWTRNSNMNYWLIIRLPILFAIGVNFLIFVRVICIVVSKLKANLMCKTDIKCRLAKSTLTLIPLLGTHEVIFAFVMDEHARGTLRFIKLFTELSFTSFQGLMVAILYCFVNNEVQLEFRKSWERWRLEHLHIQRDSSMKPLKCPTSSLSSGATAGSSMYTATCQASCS

`CC[C@H](C)[C@H](NC(=O)[C@H](Cc1ccccc1)NC(=O)[C@H](CC(C)C)NC(=O)[C@H](CCCNC(=N)N)NC(=O)[C@@H](NC(=O)[C@H](C)NC(=O)[C@H](CCC(=O)O)NC(=O)[C@H](CCC(=O)O)NC(=O)[C@H](CCC(=O)O)NC(=O)[C@H](CC(C)C)NC(=O)[C@H](Cc1ccc(O)cc1)NC(=O)[C@H](CCCCN)NC(=O)[C@H](CO)NC(=O)[C@H](CC(C)C)NC(=O)[C@H](CC(=O)O)NC(=O)[C@H](CO)NC(=O)[C@@H](NC(=O)[C@H](Cc1ccccc1)NC(=O)[C@@H](NC(=O)CNC(=O)[C@H](CCC(=O)O)NC(=O)CNC(=O)[C@@H](N)Cc1c[nH]cn1)[C@@H](C)O)[C@@H](C)O)C(C)C)C(=O)N[C@@H](CCC(=O)O)C(=O)N[C@@H](Cc1ccccc1)C(=O)N[C@@H](CC(C)C)C(=O)N[C@@H](CCCNC(=N)N)C(=O)NCCOCCOCC(=O)N[C@@H](Cc1ccc(O)cc1)C(=O)NCC(=O)N[C@@H](Cc1c[nH]c2ccccc12)C(=O)N[C@@H](CC(C)C)C(=O)N[C@@H](CC(=O)O)C(=O)N[C@@H](Cc1ccccc1)C(N)=O` [Compound 91, [Arg27,Leu14,Phe25,Tyr13]Exendin-4(1-27)-Peg3-[Leu4]Gastrin6] (H-HGEGTFTSDLSKYLEEEAVRLFIEFLR[AEEA]YGWLDF-NH2): the figures for the 50% effective concentration (EC50) on human GLP-1 R (Table 2) and at human CCK-B R (Table 2) were 0.068 nM and 18 nM, respectively.
Turning to `CC[C@H](C)[C@H](NC(=O)[C@H](Cc1ccccc1)NC(=O)[C@H](CC(C)C)NC(=O)[C@H](CCCNC(=N)N)NC(=O)[C@@H](NC(=O)[C@H](C)NC(=O)[C@H](CCC(=O)O)NC(=O)[C@H](CCC(=O)O)NC(=O)[C@H](CCC(=O)O)NC(=O)[C@H](CC(C)C)NC(=O)[C@H](Cc1ccc(O)cc1)NC(=O)[C@H](CCCCN)NC(=O)[C@H](CO)NC(=O)[C@H](CC(C)C)NC(=O)[C@H](CCC(=O)O)NC(=O)[C@H](CO)NC(=O)[C@@H](NC(=O)[C@H](Cc1ccccc1)NC(=O)[C@@H](NC(=O)CNC(=O)[C@H](CCC(=O)O)NC(=O)CNC(=O)[C@@H](N)Cc1c[nH]cn1)[C@@H](C)O)[C@@H](C)O)C(C)C)C(=O)N[C@@H](CCC(=O)O)C(=O)N[C@@H](Cc1ccccc1)C(=O)N[C@@H](CC(C)C)C(=O)N[C@@H](CCCCN)C(=O)NCCOCCOCC(=O)N[C@@H](Cc1ccc(O)cc1)C(=O)NCC(=O)N[C@@H](Cc1c[nH]c2ccccc12)C(=O)N[C@@H](CC(C)C)C(=O)N[C@@H](CC(=O)O)C(=O)N[C@@H](Cc1ccccc1)C(N)=O` [Compound 102, [Glu9,Leu14,Phe25,Tyr13]Exendin-4(1-27)-Peg3-[Leu4]Gastrin6], the values for the 50% effective concentration (EC50) on human GLP-1 R (Table 2) and at human CCK-B R (Table 2) were 0.091 nM and 54 nM, respectively.
Regarding `CC[C@H](C)[C@H](NC(=O)[C@H](Cc1ccccc1)NC(=O)[C@H](CCC(=O)O)NC(=O)[C@H](CCCCN)NC(=O)[C@H](C)NC(=O)[C@H](C)NC(=O)[C@H](CCC(N)=O)NC(=O)CNC(=O)[C@H](CCC(=O)O)NC(=O)[C@H](CC(C)C)NC(=O)[C@H](Cc1ccc(O)cc1)NC(=O)[C@H](CO)NC(=O)[C@H](CO)NC(=O)[C@@H](NC(=O)[C@H](CC(=O)O)NC(=O)[C@H](CO)NC(=O)[C@@H](NC(=O)[C@H](Cc1ccccc1)NC(=O)[C@@H](NC(=O)CNC(=O)[C@H](CCC(=O)O)NC(=O)C(C)(C)NC(=O)[C@@H](N)Cc1c[nH]cn1)[C@@H](C)O)[C@@H](C)O)C(C)C)C(=O)N[C@@H](C)C(=O)N[C@@H](Cc1c[nH]c2ccccc12)C(=O)N[C@@H](CC(C)C)C(=O)N[C@H](C(=O)N[C@@H](CCCNC(=N)N)C(=O)NCC(=O)N[C@@H](CCCNC(=N)N)C(=O)NCC(=O)NCCOCCOCC(=O)NCCOCCOCC(=O)N[C@@H](Cc1ccc(O)cc1)C(=O)NCC(=O)N[C@@H](Cc1c[nH]c2ccccc12)C(=O)N[C@@H](CC(C)C)C(=O)N[C@@H](CC(=O)O)C(=O)N[C@@H](Cc1ccccc1)C(N)=O)C(C)C` [Compound 112, [Aib8,Arg34]GLP-1(7-37)-Peg3-Peg3-[Leu4]Gastrin6], the EC50 (as a rule, the midpoint of the concentration-response curve) stood at 0.043 nM at human GLP-1 R (Table 3) and 42 nM at human CCK-B R (Table 3).
For the molecule `CC[C@H](C)[C@H](NC(=O)[C@H](Cc1ccccc1)NC(=O)[C@H](CC(C)C)NC(=O)[C@H](CCCNC(=N)N)NC(=O)[C@@H](NC(=O)[C@H](C)NC(=O)[C@H](CCC(=O)O)NC(=O)[C@H](CCC(=O)O)NC(=O)[C@H](CCC(=O)O)NC(=O)[C@H](CC(C)C)NC(=O)[C@H](Cc1ccc(O)cc1)NC(=O)[C@H](CCCNC(=N)N)NC(=O)[C@H](CO)NC(=O)[C@H](CC(C)C)NC(=O)[C@H](CC(=O)O)NC(=O)[C@H](CO)NC(=O)[C@@H](NC(=O)[C@H](Cc1ccccc1)NC(=O)[C@@H](NC(=O)CNC(=O)[C@H](CCC(=O)O)NC(=O)CNC(=O)[C@@H](N)Cc1c[nH]cn1)[C@@H](C)O)[C@@H](C)O)C(C)C)C(=O)N[C@@H](CCCCN)C(=O)N[C@@H](Cc1ccccc1)C(=O)N[C@@H](CC(C)C)C(=O)N[C@@H](CCCNC(=N)N)C(=O)NCCOCCOCC(=O)N[C@@H](Cc1ccc(O)cc1)C(=O)NCC(=O)N[C@@H](Cc1c[nH]c2ccccc12)C(=O)N[C@@H](CC(C)C)C(=O)N[C@@H](CC(=O)O)C(=O)N[C@@H](Cc1ccccc1)C(N)=O` [Compound 94, [Arg12,27,Leu14,Lys24,Phe25,Tyr13]Exendin-4(1-27)-Peg3-[Leu4]Gastrin6] (H-HGEGTFTSDLSRYLEEEAVRLFIKFLR[AEEA]YGWLDF-NH2), the results for the EC50 at human GLP-1 R (Table 2) and at human CCK-B R (Table 2) were 0.13 nM and 36 nM, respectively.
Take `CC[C@H](C)[C@H](NC(=O)[C@H](Cc1ccccc1)NC(=O)[C@H](CC(C)C)NC(=O)[C@H](CCCNC(=N)N)NC(=O)[C@@H](NC(=O)[C@H](C)NC(=O)[C@H](CCC(=O)O)NC(=O)[C@H](CCC(=O)O)NC(=O)[C@H](CCC(=O)O)NC(=O)[C@H](CC(C)C)NC(=O)[C@H](Cc1ccc(O)cc1)NC(=O)[C@H](CCCCN)NC(=O)[C@H](CO)NC(=O)[C@H](CC(C)C)NC(=O)[C@H](CCC(=O)O)NC(=O)[C@H](CO)NC(=O)[C@@H](NC(=O)[C@H](Cc1ccccc1)NC(=O)[C@@H](NC(=O)CNC(=O)[C@H](CCC(=O)O)NC(=O)CNC(=O)[C@@H](N)Cc1c[nH]cn1)[C@@H](C)O)[C@@H](C)O)C(C)C)C(=O)N[C@@H](CCC(=O)O)C(=O)N[C@@H](Cc1ccccc1)C(=O)N[C@@H](CC(C)C)C(=O)N[C@@H](CCCCN)C(=O)NCCOCCOCC(=O)NCCOCCOCC(=O)N[C@@H](Cc1ccc(O)cc1)C(=O)NCC(=O)N[C@@H](Cc1ccccc1)C(=O)N[C@@H](CC(C)C)C(=O)N[C@@H](CC(=O)O)C(=O)N[C@@H](Cc1ccccc1)C(N)=O` [Compound 90, [Glu9,Leu14,Phe25,Tyr13]Exendin-4(1-27)-Peg3-Peg3-[Leu4,Phe3]Gastrin6] (H-HGEGTFTSELSKYLEEEAVRLFIEFLK[AEEA][AEEA]YGFLDF-NH2): the EC50 on human GLP-1 R (Table 2) was determined as 0.032 nM; at human CCK-B R (Table 2), 1300 nM.
